± gives the uncertainty stated by the source.
Assay: xn = mol fraction of the nth substance listed

CC(C)c1ccccc1 + CCCO
viscosity [mPa·s], 101 kPa
Settings	298.15 K	303.15 K	308.15 K	313.15 K	318.15 K	323.15 K
x1 = 0.013	1.976 ± 0.051	–	1.523 ± 0.039	–	–	–
x1 = 0.0796	1.683 ± 0.043	–	1.334 ± 0.034	–	–	–
x1 = 0.1684	1.406 ± 0.036	–	1.14 ± 0.029	–	–	–
x1 = 0.2504	1.236 ± 0.032	–	1.011 ± 0.026	–	–	–
x1 = 0.3462	1.092 ± 0.028	–	0.896 ± 0.023	–	–	–
x1 = 0.4697	0.956 ± 0.025	–	0.791 ± 0.02	–	–	–
x1 = 0.5994	0.854 ± 0.022	–	0.712 ± 0.018	–	–	–
x1 = 0.7565	0.756 ± 0.02	–	0.657 ± 0.017	–	–	–
x2 = 0.0996	–	0.6838 ± 0.0055	0.6412 ± 0.0052	0.602 ± 0.005	0.5678 ± 0.0047	0.5436 ± 0.0045
x2 = 0.1997	–	0.6995 ± 0.0056	0.6529 ± 0.0052	0.612 ± 0.0049	0.5746 ± 0.0047	0.54 ± 0.0044
x2 = 0.2988	–	0.7297 ± 0.0057	0.6794 ± 0.0053	0.6333 ± 0.005	0.592 ± 0.0047	0.5542 ± 0.0045
x2 = 0.4008	–	0.7751 ± 0.0059	0.7176 ± 0.0055	0.6661 ± 0.0051	0.6202 ± 0.0048	0.5777 ± 0.0045
x2 = 0.5012	–	0.8411 ± 0.0062	0.7731 ± 0.0058	0.7142 ± 0.0054	0.6612 ± 0.005	0.6129 ± 0.0047
x2 = 0.6002	–	0.9284 ± 0.0067	0.847 ± 0.0062	0.7762 ± 0.0057	0.7145 ± 0.0053	0.6596 ± 0.0049
x2 = 0.7002	–	1.046 ± 0.0073	0.9475 ± 0.0067	0.8652 ± 0.0062	0.7897 ± 0.0057	0.7201 ± 0.0053
x2 = 0.8	–	1.205 ± 0.0082	1.086 ± 0.0075	0.982 ± 0.0068	0.8912 ± 0.0063	0.81 ± 0.0057
x2 = 0.8991	–	1.426 ± 0.0095	1.275 ± 0.0085	1.146 ± 0.0077	1.033 ± 0.007	0.9322 ± 0.0064

CCCCOC(C)=O + CCCO
viscosity [mPa·s], 101 kPa
Settings	298.15 K	303.15 K	308.15 K	313.15 K
x1 = 0.0995	1.689 ± 0.019	1.479 ± 0.017	1.311 ± 0.015	1.19 ± 0.014
x1 = 0.1003	–	1.296 ± 0.008	–	–
x1 = 0.198	–	1.062 ± 0.007	–	–
x1 = 0.1987	1.483 ± 0.016	1.293 ± 0.014	1.148 ± 0.013	1.048 ± 0.012
x1 = 0.2976	1.308 ± 0.014	1.148 ± 0.013	1.025 ± 0.012	0.942 ± 0.011
x1 = 0.3002	–	0.912 ± 0.006	–	–
x1 = 0.4004	–	0.821 ± 0.006	–	–
x1 = 0.4009	1.151 ± 0.012	1.011 ± 0.011	0.915 ± 0.01	0.848 ± 0.01
x1 = 0.4989	1.023 ± 0.011	0.903 ± 0.01	0.822 ± 0.009	0.77 ± 0.009
x1 = 0.5001	–	0.755 ± 0.005	–	–
x1 = 0.5969	0.921 ± 0.009	0.836 ± 0.009	0.76 ± 0.009	0.713 ± 0.008
x1 = 0.6002	–	0.705 ± 0.005	–	–
x1 = 0.6993	0.833 ± 0.009	0.766 ± 0.008	0.7 ± 0.008	0.67 ± 0.008
x1 = 0.7001	–	0.674 ± 0.005	–	–
x1 = 0.7999	–	0.654 ± 0.005	–	–
x1 = 0.8008	0.767 ± 0.008	0.717 ± 0.008	0.666 ± 0.008	0.631 ± 0.008
x1 = 0.8932	0.717 ± 0.008	0.68 ± 0.008	0.636 ± 0.007	0.61 ± 0.007
x1 = 0.9002	–	0.641 ± 0.005	–	–

CCCN + CCCO
Settings	viscosity [mPa·s]
298.15 K, 100 kPa, x2 = 0.0523	0.3938 ± 0.0045
298.15 K, 100 kPa, x2 = 0.1008	0.4276 ± 0.0049
298.15 K, 100 kPa, x2 = 0.2001	0.5072 ± 0.0058
298.15 K, 100 kPa, x2 = 0.2985	0.6113 ± 0.0069
298.15 K, 100 kPa, x2 = 0.3979	0.7332 ± 0.0082
298.15 K, 100 kPa, x2 = 0.5037	0.864 ± 0.0096
298.15 K, 100 kPa, x2 = 0.5989	1.002 ± 0.011
298.15 K, 100 kPa, x2 = 0.7015	1.186 ± 0.013
298.15 K, 100 kPa, x2 = 0.7962	1.378 ± 0.015
298.15 K, 100 kPa, x2 = 0.9032	1.671 ± 0.018
298.15 K, 100 kPa, x2 = 0.9626	1.843 ± 0.021
303.15 K, 101.33 kPa, x1 = 0.0903	1.559 ± 0.01
303.15 K, 101.33 kPa, x1 = 0.1862	1.343 ± 0.0086
303.15 K, 101.33 kPa, x1 = 0.2822	1.157 ± 0.0074
303.15 K, 101.33 kPa, x1 = 0.3807	0.9888 ± 0.0064
303.15 K, 101.33 kPa, x1 = 0.4868	0.8381 ± 0.0055
303.15 K, 101.33 kPa, x1 = 0.5804	0.7151 ± 0.0048
303.15 K, 101.33 kPa, x1 = 0.6878	0.596 ± 0.0042
303.15 K, 101.33 kPa, x1 = 0.7825	0.5123 ± 0.0039
303.15 K, 101.33 kPa, x1 = 0.901	0.417 ± 0.0034
313.15 K, 101.33 kPa, x1 = 0.0903	1.255 ± 0.0082
313.15 K, 101.33 kPa, x1 = 0.1862	1.096 ± 0.0072
313.15 K, 101.33 kPa, x1 = 0.2822	0.9516 ± 0.0063
313.15 K, 101.33 kPa, x1 = 0.3807	0.8187 ± 0.0054
313.15 K, 101.33 kPa, x1 = 0.4868	0.6961 ± 0.0048
313.15 K, 101.33 kPa, x1 = 0.5804	0.6034 ± 0.0043
313.15 K, 101.33 kPa, x1 = 0.6878	0.5101 ± 0.0039
313.15 K, 101.33 kPa, x1 = 0.7825	0.4401 ± 0.0035
313.15 K, 101.33 kPa, x1 = 0.901	0.3655 ± 0.0032

CCCN + CCN(CC)CC
303.15 K, 101.33 kPa
Settings	viscosity [mPa·s]
x2 = 0.1027	0.3371 ± 0.0049
x2 = 0.2061	0.3317 ± 0.0049
x2 = 0.3991	0.3268 ± 0.0049
x2 = 0.495	0.3278 ± 0.0049
x2 = 0.6009	0.331 ± 0.0049
x2 = 0.7911	0.3408 ± 0.005
x2 = 0.8925	0.3499 ± 0.005

Oc1ccccc1Cl + CCN(CC)CC
298 K, 101.33 kPa
Settings	viscosity [mPa·s]
x1 = 0.074	0.447 ± 0.0089
x1 = 0.305	1.41 ± 0.028
x1 = 0.408	3.58 ± 0.072
x1 = 0.473	7.81 ± 0.16
x1 = 0.552	26.2 ± 0.52
x1 = 0.616	109 ± 2.2
x1 = 0.65	255 ± 5.1
x1 = 0.703	529 ± 11
x1 = 0.72	594 ± 12
x1 = 0.751	451 ± 9
x1 = 0.769	343 ± 6.9
x1 = 0.797	213 ± 4.3
x1 = 0.843	68.9 ± 1.4
x1 = 0.87	34.3 ± 0.69
x1 = 0.901	18.3 ± 0.37
x1 = 0.956	5.91 ± 0.12

Oc1ccccc1Cl + CCN(CC)c1ccccc1
viscosity [mPa·s], 101 kPa
Settings	x1 = 0.1	x1 = 0.2015	x1 = 0.3033	x1 = 0.4011	x1 = 0.497	x1 = 0.6026	x1 = 0.7	x1 = 0.7988	x1 = 0.9003
298 K	2.116 ± 0.054	2.366 ± 0.061	2.722 ± 0.07	3.122 ± 0.08	3.629 ± 0.093	4.195 ± 0.11	4.548 ± 0.12	4.623 ± 0.12	4.12 ± 0.11
303 K	1.858 ± 0.048	2.053 ± 0.053	2.31 ± 0.059	2.589 ± 0.066	2.933 ± 0.075	3.337 ± 0.085	3.533 ± 0.09	3.605 ± 0.092	3.32 ± 0.085
308 K	1.668 ± 0.043	1.818 ± 0.047	2.013 ± 0.052	2.192 ± 0.056	2.432 ± 0.062	2.741 ± 0.07	2.89 ± 0.074	2.938 ± 0.075	2.769 ± 0.071
313 K	1.507 ± 0.039	1.626 ± 0.042	1.775 ± 0.046	1.94 ± 0.05	2.12 ± 0.054	2.318 ± 0.059	2.42 ± 0.062	2.463 ± 0.063	2.361 ± 0.061
318 K	1.37 ± 0.035	1.47 ± 0.038	1.641 ± 0.042	1.701 ± 0.044	1.841 ± 0.047	1.998 ± 0.051	2.086 ± 0.054	2.129 ± 0.055	2.135 ± 0.055

Oc1ccccc1Cl + CCNc1ccccc1
viscosity [mPa·s], 101 kPa
Settings	x1 = 0.1027	x1 = 0.2022	x1 = 0.3028	x1 = 0.4011	x1 = 0.5014	x1 = 0.6004	x1 = 0.7024	x1 = 0.7991	x1 = 0.8994
298 K	2.403 ± 0.062	2.916 ± 0.075	3.666 ± 0.094	4.186 ± 0.11	4.763 ± 0.12	5.01 ± 0.13	5.008 ± 0.13	4.647 ± 0.12	4.064 ± 0.1
303 K	2.117 ± 0.054	2.487 ± 0.064	3.051 ± 0.078	3.372 ± 0.086	3.807 ± 0.097	4.028 ± 0.1	3.972 ± 0.1	3.751 ± 0.096	3.335 ± 0.085
308 K	1.852 ± 0.048	2.161 ± 0.055	2.557 ± 0.066	2.828 ± 0.072	3.16 ± 0.081	3.314 ± 0.085	3.299 ± 0.084	3.134 ± 0.08	2.844 ± 0.073
313 K	1.673 ± 0.043	1.885 ± 0.048	2.206 ± 0.057	2.407 ± 0.062	2.662 ± 0.068	2.771 ± 0.071	2.782 ± 0.071	2.67 ± 0.068	2.452 ± 0.063
318 K	1.491 ± 0.038	1.67 ± 0.043	1.925 ± 0.049	2.166 ± 0.056	2.287 ± 0.059	2.372 ± 0.061	2.392 ± 0.061	2.317 ± 0.059	2.137 ± 0.055

— the CheMixHub viscosity set
